These are literature values, as cited in US20200129471A1, “USE OF CANNABIS TO TREAT FIBROMYALGIA, METHODS AND COMPOSITIONS THEREOF” (ONE WORLD CANNABIS LTD, priority 2015, published 2020).

The conditions of this data set: administered to humans for 30 days.

For `C=C(C)[C@@H]1CCC(C)=C[C@H]1c1c(O)cc(CCCCC)cc1O` [CBD, cannabidiol], the tolerability entry was “tolerated”.
